Laboratory results reported in a melting point compilation (Tetko et al.; mined from patent text by program, amines drawn as free bases though some values may be those of a salt).

Row | melting point [°C] | Structure (SMILES)
1 | 83 to 84 | O=C(O)CCCC(=O)NCc1ccccc1
2 | 178 to 179 | CCCCn1c(=O)c2c(ncn2S(=O)(=O)c2cccc([N+](=O)[O-])c2)n(CCCC)c1=O
3 | 281 to 297 | Cc1cc(C)c(-c2cc3cnc(N)nc3nc2NC(=O)NC(C)(C)C)c(C)c1
4 | 98 to 100 | CC(=O)N1CCC(CCCCC(=O)c2ccc(F)cc2)CC1
5 | 77 to 78 | O=S(=O)(c1ccc(Cl)cc1)C(CCCCF)c1cc(F)ccc1F (configuration not stated)
6 | 182 to 183 | CCOC(=O)c1c(CCc2ccc(O)cc2)oc2ccc(C#N)cc12
7 | 108 to 111 | CCOC(=O)c1ccc(NC(=O)c2cc(Cl)ccc2OC)cc1OCC
8 | 65 to 66 | COC(=O)C(C)(O[Si](C)(C)C(C)(C)C)c1ccc([N+](=O)[O-])cc1 (configuration not stated)
9 | 243 to 246 | Cc1cc(F)cc2c1CC/C2=C\C(=O)O
10 | 174 to 176 | COC(=O)c1ccc2c(c1)c(=O)cc(-c1ccccc1)n2C
11 | 108 to 110 | CCCCC(=O)Nc1ccc(Br)c(-n2nc(CC)n(Cc3ccc(-c4ccccc4S(=O)(=O)NC(=O)OC(C)(C)C)cc3F)c2=O)c1
12 | 208 to 209 | CCOC(=O)c1c(-c2cc(C(C)(C)C)c(O)c(C(C)(C)C)c2)c2cc3c(cc2oc1=O)CCC3
13 | 155 to 157 | COCC(=O)Nc1c(C(=O)c2cccc(C)c2)[nH]c2cc(Cl)ccc12
14 | 162 to 165 | CN(C)C1Cc2cc(Br)cc([N+](=O)[O-])c2NC1=O (configuration not stated)
15 | 223 to 225 | Cc1c(C(=O)O)oc2ccc(Cc3cccnc3)cc12
16 | 95 to 105 | CCNC(=O)c1cccc(F)c1Nc1nc(Nc2cc3c(cc2OC)CCN(CC(=O)N(C)C)CC3)ncc1Cl
17 | 229 to 230 | COC(=O)NNC(=O)c1ccc(O)cc1
18 | 161 | CC(=O)OC1CSC(Oc2cncc(-c3ccc(F)c(C)c3)c2)C(OC(C)=O)C1OC(C)=O (configuration not stated)
19 | 74 to 77 | CC(C(=O)O)c1ccc([N+](=O)[O-])c(F)c1 (configuration not stated)
20 | 162 to 165 | CCOC(=O)C=Cc1cc(-n2nc3ccc(Cl)cn3c2=O)c(F)cc1Cl

Row | melting point [°C] | Structure (SMILES)
21 | 100 to 101 | O=Cc1ccccc1Oc1ccc(Cl)cc1[N+](=O)[O-]
22 | 251 to 253 | Nc1c(-c2ccc(I)cc2)nc2ccc(F)cc2c1C(=O)O
23 | 219 to 220 | O=C(O)c1cnc(-c2ccccc2OCC2CC2)[nH]c1=O
24 | 217 | CSc1ccc2ccc(C(=O)O)cc2c1
25 | 263 to 266 | CCn1c(=O)c(C(N)=O)c(N)c2ccc(C)nc21
26 | 95 to 98 | CCCNc1c(C#N)cnn1-c1ccc(Cl)c(Cl)c1Cl
27 | 219 to 221 | O=[N+]([O-])c1cccc(-c2csc(NS(=O)(=O)Cc3ccccc3)n2)c1
28 | 185 to 186 | Cc1nc(N2C[C@H](C)N(Cc3ccc(F)cc3)C2=O)sc1C(N)=O
29 | 187 to 188 | O=[N+]([O-])c1cc(Cl)ccc1NCCSSCCNc1ccc(Cl)cc1[N+](=O)[O-]
30 | 264 to 266 | CCC(=O)Nc1c(C(=O)c2cc(Cl)ccc2NC(C)=O)[nH]c2cc(Cl)ccc12
31 | 209 to 210 | COC(=O)C1=C(C)Nc2ccnn2C1c1ccccc1C(F)(F)F (configuration not stated)
32 | 105 | CCCCc1nc(SC)c(C(=O)OCC)n1Cc1ccccc1-c1ccccc1S(=O)(=O)NC#N
33 | 139 | CC(=O)Nc1ccc(C(=O)c2cc(-c3ccncc3)c(N3CCOCC3)s2)cc1
34 | 176 to 177 | O=c1cc(C(F)(F)F)ccn1-c1c(Cl)cc(C(Cl)Cl)cc1Cl
35 | 121 | O=C(O)c1cc(NCc2c(F)c(F)c(C(F)(F)F)c(F)c2F)ccc1[N+](=O)[O-]
36 | 189 to 190 | CC(=O)Oc1cccc2c1C(=O)c1c(OC(C)=O)cc(-c3nnn[nH]3)cc1C2=O
37 | 143 to 144 | O=C(Nc1ccc([N+](=O)[O-])cc1)N(O)C1CCCCCCC1
38 | 60 | CC(C)(C)OC(=O)C1(Cl)OC1c1ccc([N+](=O)[O-])cc1 (configuration not stated)
39 | 190 to 193 | C=CCc1cc(C(=O)c2ccc(Cl)c(S(=O)(=O)N=CN(C)C)c2)c(Cl)c(Cl)c1O

More lines, now with the values behind:

Row | Structure (SMILES) | melting point [°C]
40 | CCCCc1cc2c(C)n(C)nc2c(N)n1 | 130 to 131
41 | O=Cc1ccc(-c2c(-c3nn[nH]n3)[nH]c3ccccc23)cc1 | 210 to 212
42 | COC(=O)C(O)P(C)(C)=O (configuration not stated) | 84 to 86
43 | COc1nc2c(C)cccc2c2c1CCN2c1ccccc1C | 107 to 108
44 | Nc1ncnc2c1nnn2C1CCC(O)C1O (configuration not stated) | 244 to 245
45 | CCOC(=O)c1cc2cc(/C=C/C(=O)c3cc(OC)c(OC)c(OC)c3)cc(C(C)CC)c2oc1=O (configuration not stated) | 138 to 139
46 | COc1ccc2ccc(S(=O)(=O)N[C@@H](CCCNC(=N)N)C(=O)N3CCC(c4ccccc4)CC3C(=O)O)cc2c1 (some centres not stated) | 183 to 186
47 | CC(C)(O)Cn1cnc2c1c1ccccc1n1nnnc21 | 246 to 247
48 | CON(C)C(=O)[C@@H](Cc1ccc(OCc2ccccc2)cc1)NC(=O)OC(C)(C)C | 107 to 109
49 | Cc1ccccc1OS(=O)(=O)c1ccc(N2CCN(C)C2=O)cc1 | 157 to 158
50 | CSc1ccc(C=O)c(Cl)c1 | 76 to 77
51 | C=CC[C@@H]1C[C@@H](COC(c2ccccc2)(c2ccccc2)c2ccccc2)N(Cc2ccc(OC)cc2)C1=O | 130 to 132
52 | CC(C)(C)OC(=O)NCCNCCNC(=O)OC(C)(C)C | 69 to 71
53 | O=C(c1ccc(Nc2ccncc2)cc1)N1CCCCC1 | 170 to 172
54 | CS(=O)(=O)c1c(C(=O)NN=Cc2nccs2)[nH]c2ccccc12 | > 280
55 | CCCS(=O)(=O)Nc1cc(OC[C@@H](O)CNC2CCN(c3ccc(C(=O)OCC)cc3)CC2)ccc1O | 63 to 65
56 | CCC(CC)C(c1ccnn1-c1ccccc1)N(C)S(=O)(=O)c1ccc(Br)s1 (configuration not stated) | 116 to 118
57 | CCOP(=O)(Cc1cccc2cccc(CP(=O)(OCC)OCC)c12)OCC | 55 to 56
58 | COc1ccc2c(c1)c(-c1[nH]c3ncccc3c1C)cn2C | 237
59 | CC1(C)CC(=NNC(=N)NN=C2CC(C)(C)NC(C)(C)C2)CC(C)(C)N1 | 163 to 167

Row | Structure (SMILES) | melting point [°C]
60 | Cc1nc(-c2ccc(-c3ccc(C(=O)Nc4cc(OCCN(C)C)ccc4Cl)cc3)c(C)c2)no1 | 101 to 102
61 | CCOP(=O)(C[C@H]1CCN[C@@H](C(N)=O)C1)OCC (relative stereo) | 155 to 158
62 | CN1C(c2ccncc2)CC(=O)CC1c1ccncc1 (configuration not stated) | 103 to 106
63 | CCCCCCCCCCCCCCC1Cc2ccc(C(=O)O)cc2N1C (racemic) | 115 to 118
64 | [O-][N+]1=C(c2ccccc2Cl)c2cc(Cl)ccc2-c2ncncc2C1 | 216 to 217
65 | CC(C)CC1(C(CCN2C(=O)c3ccc4c(ccc5ccccc54)c3C2=O)C(=O)NO)CCN(CCc2ccccc2)C1=O (configuration not stated) | 203 to 205
66 | CCn1ncnc1COc1nn2c(-c3ccccc3F)nncc2c1C(C)(C)CC | 89 to 92
67 | CCC(=NO)c1ccc(Sc2cc(F)cc([C@@]3(OC)CCO[C@@H]3C)c2)cc1 (racemic) | 113 to 114
68 | O=c1c(Br)c(SCc2ccccc2)ccn1Cc1ccccc1 | 181 to 182
69 | COc1cc2c(c3c1OC(C)(C)C3)C(c1cccc(N(C(C)=O)c3cccnc3)c1)=NC(C)(C)C2 | 157 to 158
70 | Cc1ccc(Cl)c(Nc2ccccc2-c2nnc(S(C)=O)s2)c1Cl (configuration not stated) | 158 to 160
71 | CN(C)CCNC(=O)Cc1ccc(OCc2ccc(-c3ccccc3)cc2)cc1 | 160 to 161
72 | OC(CNc1c(Br)cnc2ccccc12)c1ccccc1 (configuration not stated) | 131 to 132
73 | COc1cc(Nc2c(C#N)cnc3cc(I)sc23)c(Cl)cc1Cl | 233 to 234
74 | CC(C)(C)Oc1ccc(S(=O)(=O)N2c3ccccc3C[C@H]2C(=O)NCCOc2ccc(CC(=O)O)cc2)cc1 | 68 to 71
75 | N#Cc1cc(-c2nc3cncnc3s2)ccc1Oc1ccccc1O | 255 to 256
76 | CC12CC(=NO)C(C)(C)C1C(O)C2 (configuration not stated) | 130 to 133
77 | CN(C)c1cccc2c1c(=O)n(C)c1c(-c3noc(C4CC4)n3)ncn21 | 170 to 171
78 | CN1CCC23COC(C)(C)OC2C1Cc1ccc(O)cc13 (configuration not stated) | 237 to 238
79 | COc1ccc(S(=O)(=O)Nc2ncnc(OCCO)c2Cc2ccccc2OC)cc1 | 161 to 162

Row | Structure (SMILES) | melting point [°C]
80 | O=C1Oc2ccc(Br)cc2C1c1ccc(Cl)cc1Cl (configuration not stated) | 149 to 150
81 | COc1ccc2c(c1)CC=C(C=Cc1ccc(C#N)cc1)O2 | 224 to 226
82 | O=C(NCCOc1ccc(CC(Sc2ccccc2)C(=O)O)cc1)c1ccc(-c2ccccn2)cc1 (configuration not stated) | 75 to 77
83 | CCOC(=O)c1c(N2CCN(C(=O)OCC)CC2)c2ccc(C)nc2n(CC)c1=O | 138 to 140
84 | COc1ccc(-c2cc3n(n2)C(=O)c2ccccc2-3)cc1 | 180 to 181
85 | O=C(NC1CCC(OCc2ccccc2)CC1)NC12CC3CC(CC(C3)C1)C2 (configuration not stated) | 181
86 | CCCCCCCOC1CCC(=O)N1 (configuration not stated) | 52 to 54
87 | Cn1c(C(=O)N2CCC[C@@H]3CCCC[C@H]32)cc2ccccc21 (relative stereo) | 87 to 90
88 | CCC(CC)Oc1cc(C)nc(Nc2c(C)cc(C)cc2C)c1C#N | 105 to 107
89 | Nc1cc(-c2nnc(CCc3cccc(F)c3)o2)ccn1 | 165 to 166
90 | O=C1CC(c2cccc(-c3nc(CN4CCOCC4)co3)c2)=Nc2ccc(-n3cccc3)cc2N1 | 166 to 167
91 | CCC/C=C/S(=O)(=O)NC(=O)c1ccc2nc(C)n(Cc3ccc(N(C)C(=O)OCC)cc3Cl)c2n1 | 165 to 166
92 | CCOC(=O)CC[C@H](NC(=O)c1ccc(CCc2cnc3[nH]c(NC(=O)C(C)(C)C)nc(=O)c3c2)s1)C(=O)OCC | 57 to 87
93 | CC(C)(C)OC(=O)C1CCCN2C(=O)CC(=O)N12 (configuration not stated) | 121 to 122
94 | CC(O)C(CCCc1ccccc1)n1ncc2c(=O)[nH]c(Cc3ccc(F)cc3)nc21 (configuration not stated) | 103
95 | O=C(NC12CC3CC(CC(C3)C1)C2)OCCc1cccs1 | 67 to 69
96 | COc1cc(C=CC(=O)CCCOc2ccccc2)ccc1O | 67 to 70
97 | CC(=O)N1CCc2ccc(/C=C/CCN3CCC(c4ccc(Cl)cc4)CC3)cc2CC1 | 153 to 155
